Test results published in publication PMC5382548 (Scientific Reports, 2015).
Like-named read-outs stand apart in the source and are kept apart here.

Tests used:
[1] = tested on: T-loop, a 26-mer hairpin double-stranded DNA; experiment: FRET melting assay, T-loop hairpin ds-DNA; assay type: binding; conditions: ds-DNA 0.2 μM, ligand 1 μM, K-cacodylate buffer pH 7.4, 60 mM K+
Experimental: Fluorescence resonance energy transfer (FRET) studies with DNA sequences labelled at the 5′ and 3′ ends, were conducted to evaluate the G4 DNA stabilizing properties of IQcs (at 0.1 to 5 μM ligand concentrations). The G4-forming sequence KRAS21R[11], together with T-loop, a 26-mer hairpin double-stranded DNA (ds-DNA) sequence were used in the first screening assay. Reproducible IQc dose-dependent melting curves (Sup. Inf.; Figure S3) and stabilization temperature (ΔTm) values were obtained (Figure 2 and Table S5).
Figure 2 FRET stabilization temperatures (ΔTm) of KRAS21R G4 and hairpin ds-DNA (T-loop) at 0.2 μM, in K-cacodylate buffer (pH = 7.4, 60 mM K^+), stabilized by IQc derivatives and TMPyP4 at 1 μM. ^a) SD ≤ 0.2°C. TEXT PRINTED IN THE PICTURE: TMPyP4: ΔTm / °C ^a) (T-Loop): 16.0; ΔTm / °C ^a) (KRAS21R): 25.1 | 3e: ΔTm / °C ^a) (T-Loop): 6.5; ΔTm / °C ^a) (KRAS21R): 22.0 | 3d: ΔTm / °C ^a) (T-Loop): 5.6; ΔTm / °C ^a) (KRAS21R): 19.9 | 2d: ΔTm / °C ^a) (T-Loop): 6.1; ΔTm / °C ^a) (KRAS21R): 15.1 | 2a: ΔTm / °C ^a) (T-Loop): 1.5; ΔTm / °C ^a) (KRAS21R): 4.4 […]
Oligonucleotide sequences were purchased from Eurofins MWG Synthesis GmbH, Germany or STAB VIDA Genomics Lab, Caparica, Lisbon, Portugal. The labelled oligonucleotides used in the FRET assays had attached the donor fluorophore FAM (6-carboxyfluorescein) and the acceptor fluorophore TAMRA (6-carboxytetramethylrhodamine): KRAS21R: 5′-FAM-[…]-TAMRA-3′; KRAS32R: 5′-FAM-[…]-TAMRA-3′; UTR-1: 5′-FAM-GCGGCGGCGGAGG-TAMRA-3′; UTR-2: 5′-FAM-[…]-TAMRA-3; T-Loop:5′-FAM-[…]-TAMRA-3′; F21T: 5′-FAM-[…]-TAMRA-3′. Non-labelled oligonucleotides were used in FRET competition assays and in the spectroscopic studies: ds26: - d(5′-CAATCGGATCGAATT CGATCCGATTG-3′); KRAS21R: 5′-[…]-3′; HT21: 5′-[…]-3′. Each oligonucleotide was initially diluted to a storage solution at 100 μM in nuclease-free water (not DEPC-treated), purchased from Ambion Applied Biosystems UK.
The ability of indolo[3,2-c]quinolines to stabilize DNA sequences was investigated using a Fluorescence Resonance Energy Transfer (FRET) assay as reported elsewhere.
Figure S3 (cont.)| Concentration-dependent (0.1, 0.5, 1, 2, 3, 4 and 5 µM) FRET melting profiles of G4 structures and T-loop DNA with indolo[3,2-c]quinoline derivatives 1a, 2a-g and 3d-j in K-cacodylate buffer (pH 7.4, 60 mM K+). […]
Table S5 | FRET stabilization temperatures (ΔTm) of G4s sequences and ds-DNA (0.2 µM) stabilized by […]

SW620 (metastatic colon) = experiment: MTS short-term cytotoxicity assay, SW620; assay type: cell-based; conditions: Homo sapiens, read-out: IC50 SW620
Experimental: (§1) Short-term anti-proliferative assays were carried out by two different assays using a panel of human cancer and non-malignant human cell lines. […] The transformed human embryonic kidney cell line HEK293T (wt KRAS) was sensitive to all tested drugs, including TMPyP4, a cationic porphyrin established as a G4 ligand, as well as the anticancer drug 5-fluorouracil (5-FU).
(§2) HCT116 human colon carcinoma cells, SW620 human colorectal adenocarcinoma and HEK293 T human embryonic kidney cells were grown in Dulbecco's modified Eagle's medium (DMEM) supplemented with 10% fetal bovine serum, and 1% antibiotic/antimycotic (Invitrogen, Grand Island, NY, USA) and maintained at 37°C in a humidified atmosphere of 5% CO2. Cells were seeded in 96 well plates at 5.000 cells/well. Twenty-four hours after cell plating, media was removed and replaced with fresh media containing test compounds and 5-FU (Sigma), a common cytotoxic agent used in colon cancer treatmen, or vehicle control (DMSO). Following 72 h of compound exposure, cell viability was evaluated using the CellTiter 96 AQueous Non-Radioactive Cell Proliferation Assay (Promega, Madison, WI, USA), using 3-(4,5-dimethylthiazol-2-yl)-5-(3-carboxymethoxyphenyl)-2-(4-sulfophenyl)-2H-tetrazolium, inner salt (MTS) as previously described. Cell viability data were expressed as mean ± SEM or mean ± SD from at least three independent experiments. IC50 and IC65 values were determined using GaphPad Prism v.5.00 (GraphPad Software). (Performed at Cell Function and Therapeutic Targeting Group, iMed.ULisboa)

[2] = tested on: HEK293T (embryonic kidney); experiment: MTS short-term cytotoxicity assay, HEK293T; assay type: cell-based; conditions: Homo sapiens, HEK-293T, 72 h, read-out: IC50 HEK293T
Experimental: as §1, §2

| SMILES | FRET stabilization temperature ΔTm (T-loop) [1] | IC50 (SW620 (metastatic colon); SW-620, MTS assay, 72 h) | IC50 ([2]; MTS assay) | IC50 (SW620 (metastatic colon); SW-620, 72 h) | IC50 [2] |
| --- | --- | --- | --- | --- | --- |
| Cn1cc2c3ccccc3nc-2c2cc(Br)ccc21 [2a, 2-bromo-5-methyl-indolo[3,2-c]quinoline] | 1.5 °C | 200 nM | 300 nM |  |  |
| CCN(CC)CCCNc1ccc2[nH]c3c(c[n+](C)c4ccc(NCCCN(CC)CC)cc34)c2c1.[Cl-] [3d] | 5.6 °C | 4740 nM | 6570 nM |  |  |
| CCN(CC)CCCNc1ccc2c(c1)c1[nH]c3ccccc3c1c[n+]2C [2d] | 6.1 °C | 590 nM | 640 nM |  |  |
| C[n+]1ccc(-c2c3nc(c(-c4cc[n+](C)cc4)c4ccc([nH]4)c(-c4cc[n+](C)cc4)c4ccc([nH]4)c(-c4cc[n+](C)cc4)c4nc2C=C4)C=C3)cc1 [TMPyP4, reference compound] | 16.0 °C |  |  | > 20000 nM | 2970 nM |
| CCN(CC)CCCNc1ccc2c(c1)[nH]c1c2c[n+](C)c2ccc(NCCCN(CC)CC)cc12.[Cl-] [3e] | 6.5 °C | 1790 nM | 3120 nM |  |  |
